Test results taken from ChEMBL document CHEMBL5154749 (Eur J Med Chem, 2022).
Active and inactive are the calls of the source. The rule behind the calls is not given here.

Assays:
LoVo [1] = assay: Induction of apoptosis in human LoVo cells deficient in ATM assessed as early apoptotic cells at 1 uM measured after 24 hrs by Annexin V-FITC/Propidium iodide staining based flow cytometry analysis (reference value: 4.20%); assay type: functional
HT-29 [2] = assay: Induction of apoptosis in human HT-29 cells assessed as necrotic cells at 1 uM measured after 48 hrs by Annexin V-FITC/Propidium iodide staining based flow cytometry analysis (reference value: 0.73%); assay type: functional
LoVo [3] = assay: Induction of apoptosis in human LoVo cells deficient in ATM assessed as late apoptotic cells at 1 uM measured after 24 hrs by Annexin V-FITC/Propidium iodide staining based flow cytometry analysis (reference value: 3.32%); assay type: functional
LoVo [4] = assay: Induction of apoptosis in human LoVo cells deficient in ATM assessed as late apoptotic cells at 0.3 uM measured after 24 hrs by Annexin V-FITC/Propidium iodide staining based flow cytometry analysis (reference value: 3.32%); assay type: functional
LoVo [5] = assay: Antiproliferative activity against ATM-deficient human LoVo cells assessed as reduction in cell viability incubated for 72 hrs by MTT assay; assay type: functional, cell-based; conditions: dose 0.001-100 µM, DDE = dose-dependent effect
HT-29 [6] = assay: Cytotoxicity against ATM proficient human HT-29 cells assessed as reduction in cell viability incubated for 72 hrs by MTT assay; assay type: functional, cell-based; conditions: dose 0.001-100 µM, DDE = dose-dependent effect
LoVo [7] = assay: Induction of apoptosis in human LoVo cells deficient in ATM assessed as late apoptotic cells at 3 uM measured after 24 hrs by Annexin V-FITC/Propidium iodide staining based flow cytometry analysis (reference value: 3.32%); assay type: functional
[8] = Oral bioavailability in Sprague-Dawley rat at 10 mg/kg measured at 0.083 to 24 hrs by LC-MS/MS method; assay type: ADME, organism-based; conditions: in vivo, time 0.083-24 hrs
[9] = Cmax in Sprague-Dawley rat at 5 mg/kg, iv measured at 0.083 to 24 hrs by LC-MS/MS method; assay type: ADME, organism-based; design: dose 5 mg/kg, time 0.083-24 hrs, route iv; conditions: in vivo
[10] = biological target: Serine/threonine-protein kinase B-raf (Homo sapiens, UniProt P15056); assay: Inhibition of human recombinant B-raf (416 to end residue) using myelin-Bas as substrate incubated for 40 mins in presence of ATP by scintillation counting method
HT-29 [11] = assay: Induction of apoptosis in human HT-29 cells assessed as late apoptotic cells at 0.3 uM measured after 48 hrs by Annexin V-FITC/Propidium iodide staining based FACS cytometry analysis (reference value: 0.71%); assay type: functional
HT-29 [12] = assay: Induction of apoptosis in human HT-29 cells assessed as viable cells at 3 uM measured after 48 hrs by Annexin V-FITC/Propidium iodide staining based flow cytometry analysis (reference value: 97.01%); assay type: functional; conditions: read-out: Activity
[13] = Half life in Sprague-Dawley rat at 10 mg/kg, po measured at 0.083 to 24 hrs by LC-MS/MS method; assay type: ADME, organism-based; conditions: in vivo, time 0.083-24 hrs
[14] = Volume of distribution at steady state in Sprague-Dawley rat at 5 mg/kg, iv measured at 0.083 to 24 hrs by LC-MS/MS method; assay type: ADME, organism-based; conditions: in vivo, time 0.083-24 hrs, read-out: Vdss
MCF7 = assay: Antiproliferative activity against ATM proficient human MCF7 cells assessed as reduction in cell viability incubated for 72 hrs by MTT assay; assay type: functional, cell-based; conditions: dose 0.001-100 µM, DDE = dose-dependent effect
LoVo [15] = assay: Antitumor activity against human LoVo cells xenografted in NOD/SCID mouse assessed as tumor growth inhibition at 50 mg/kg, po BID for 30 days measured every 2 to 3 days; assay type: functional; conditions: 720 h, time 30 day, read-out: TGI
HT-29 [16] = assay: Induction of apoptosis in human HT-29 cells assessed as early apoptotic cells at 3 uM measured after 48 hrs by Annexin V-FITC/Propidium iodide staining based flow cytometry analysis (reference value: 1.55%); assay type: functional
HCT-116 = assay: Antiproliferative activity against ATM proficient human HCT-116 cells assessed as reduction in cell viability incubated for 72 hrs by MTT assay; assay type: functional, cell-based; conditions: dose 0.001-100 µM, DDE = dose-dependent effect
HT-29 [17] = assay: Induction of apoptosis in human HT-29 cells assessed as necrotic cells at 3 uM measured after 48 hrs in presence of AZD1390 by Annexin V-FITC/Propidium iodide staining based flow cytometry analysis (reference value: 0.23%); assay type: functional
[18] = Half life in Sprague-Dawley rat at 5 mg/kg, iv measured at 0.083 to 24 hrs by LC-MS/MS method; assay type: ADME, organism-based; conditions: in vivo, time 0.083-24 hrs
LoVo [19] = assay: Induction of apoptosis in human LoVo cells deficient in ATM assessed as viable cells at 1 uM measured after 24 hrs by Annexin V-FITC/Propidium iodide staining based flow cytometry analysis (reference value: 91.64%); assay type: functional; conditions: read-out: Activity
LoVo [20] = assay: Induction of apoptosis in human LoVo cells deficient in ATM assessed as early apoptotic cells at 0.3 uM measured after 24 hrs by Annexin V-FITC/Propidium iodide staining based flow cytometric analysis (reference value: 4.20%); assay type: functional
[21] = Clearance in Sprague-Dawley in rat at 5 mg/kg, iv measured at 0.083 to 24 hrs by LC-MS/MS method; assay type: ADME, organism-based; conditions: in vivo, time 0.083-24 hrs
HT-29 [22] = assay: Induction of DNA damage in human HT-29 cells proficient in ATM at 1 uM measured after 3 days in presence of AZD1390 by immunofluorescence assay; assay type: functional, cell-based; conditions: time 3.0 day
[23] = AUC (0 to infinity) in Sprague-Dawley rat at 5 mg/kg, iv measured at 0.083 to 24 hrs by LC-MS/MS method; assay type: ADME, organism-based; design: dose 5 mg/kg, time upper 24 hrs, time lower 0.083 hrs, route iv; conditions: in vivo
[24] = Tmax in Sprague-Dawley rat at 10 mg/kg, po measured at 0.083 to 24 hrs by LC-MS/MS method; assay type: ADME, organism-based; conditions: in vivo, time 0.083-24 hrs
LoVo [25] = assay: Antimigratory activity in human LoVo cells assessed as suppression of cell migration measured up to 48 hrs by wound healing assay; assay type: functional, cell-based; conditions: dose <= 1.0 µM, DDE = dose-dependent effect
HT-29 [26] = assay: Induction of apoptosis in human HT-29 cells assessed as viable cells at 1 uM measured after 48 hrs by Annexin V-FITC/Propidium iodide staining based flow cytometry analysis (reference value: 97.01%); assay type: functional; conditions: read-out: Activity
[27] = biological target: T1, Serine/threonine-protein kinase ATR (Homo sapiens, UniProt Q13535); assay: Inhibition of ATR signalling in ATM-deficient human LoVo cells assessed as inhibition of Chk1 phosphorylation incubated for 1 hr followed by hydroxyurea addition measured after 4 hrs by Western blot analysis; assay type: cell-based; conditions: dose <= 3.0 µM, time 5.0 hrs, DDE = dose-dependent effect
Target sequence in this assay (Q13535 whole entry, looked up): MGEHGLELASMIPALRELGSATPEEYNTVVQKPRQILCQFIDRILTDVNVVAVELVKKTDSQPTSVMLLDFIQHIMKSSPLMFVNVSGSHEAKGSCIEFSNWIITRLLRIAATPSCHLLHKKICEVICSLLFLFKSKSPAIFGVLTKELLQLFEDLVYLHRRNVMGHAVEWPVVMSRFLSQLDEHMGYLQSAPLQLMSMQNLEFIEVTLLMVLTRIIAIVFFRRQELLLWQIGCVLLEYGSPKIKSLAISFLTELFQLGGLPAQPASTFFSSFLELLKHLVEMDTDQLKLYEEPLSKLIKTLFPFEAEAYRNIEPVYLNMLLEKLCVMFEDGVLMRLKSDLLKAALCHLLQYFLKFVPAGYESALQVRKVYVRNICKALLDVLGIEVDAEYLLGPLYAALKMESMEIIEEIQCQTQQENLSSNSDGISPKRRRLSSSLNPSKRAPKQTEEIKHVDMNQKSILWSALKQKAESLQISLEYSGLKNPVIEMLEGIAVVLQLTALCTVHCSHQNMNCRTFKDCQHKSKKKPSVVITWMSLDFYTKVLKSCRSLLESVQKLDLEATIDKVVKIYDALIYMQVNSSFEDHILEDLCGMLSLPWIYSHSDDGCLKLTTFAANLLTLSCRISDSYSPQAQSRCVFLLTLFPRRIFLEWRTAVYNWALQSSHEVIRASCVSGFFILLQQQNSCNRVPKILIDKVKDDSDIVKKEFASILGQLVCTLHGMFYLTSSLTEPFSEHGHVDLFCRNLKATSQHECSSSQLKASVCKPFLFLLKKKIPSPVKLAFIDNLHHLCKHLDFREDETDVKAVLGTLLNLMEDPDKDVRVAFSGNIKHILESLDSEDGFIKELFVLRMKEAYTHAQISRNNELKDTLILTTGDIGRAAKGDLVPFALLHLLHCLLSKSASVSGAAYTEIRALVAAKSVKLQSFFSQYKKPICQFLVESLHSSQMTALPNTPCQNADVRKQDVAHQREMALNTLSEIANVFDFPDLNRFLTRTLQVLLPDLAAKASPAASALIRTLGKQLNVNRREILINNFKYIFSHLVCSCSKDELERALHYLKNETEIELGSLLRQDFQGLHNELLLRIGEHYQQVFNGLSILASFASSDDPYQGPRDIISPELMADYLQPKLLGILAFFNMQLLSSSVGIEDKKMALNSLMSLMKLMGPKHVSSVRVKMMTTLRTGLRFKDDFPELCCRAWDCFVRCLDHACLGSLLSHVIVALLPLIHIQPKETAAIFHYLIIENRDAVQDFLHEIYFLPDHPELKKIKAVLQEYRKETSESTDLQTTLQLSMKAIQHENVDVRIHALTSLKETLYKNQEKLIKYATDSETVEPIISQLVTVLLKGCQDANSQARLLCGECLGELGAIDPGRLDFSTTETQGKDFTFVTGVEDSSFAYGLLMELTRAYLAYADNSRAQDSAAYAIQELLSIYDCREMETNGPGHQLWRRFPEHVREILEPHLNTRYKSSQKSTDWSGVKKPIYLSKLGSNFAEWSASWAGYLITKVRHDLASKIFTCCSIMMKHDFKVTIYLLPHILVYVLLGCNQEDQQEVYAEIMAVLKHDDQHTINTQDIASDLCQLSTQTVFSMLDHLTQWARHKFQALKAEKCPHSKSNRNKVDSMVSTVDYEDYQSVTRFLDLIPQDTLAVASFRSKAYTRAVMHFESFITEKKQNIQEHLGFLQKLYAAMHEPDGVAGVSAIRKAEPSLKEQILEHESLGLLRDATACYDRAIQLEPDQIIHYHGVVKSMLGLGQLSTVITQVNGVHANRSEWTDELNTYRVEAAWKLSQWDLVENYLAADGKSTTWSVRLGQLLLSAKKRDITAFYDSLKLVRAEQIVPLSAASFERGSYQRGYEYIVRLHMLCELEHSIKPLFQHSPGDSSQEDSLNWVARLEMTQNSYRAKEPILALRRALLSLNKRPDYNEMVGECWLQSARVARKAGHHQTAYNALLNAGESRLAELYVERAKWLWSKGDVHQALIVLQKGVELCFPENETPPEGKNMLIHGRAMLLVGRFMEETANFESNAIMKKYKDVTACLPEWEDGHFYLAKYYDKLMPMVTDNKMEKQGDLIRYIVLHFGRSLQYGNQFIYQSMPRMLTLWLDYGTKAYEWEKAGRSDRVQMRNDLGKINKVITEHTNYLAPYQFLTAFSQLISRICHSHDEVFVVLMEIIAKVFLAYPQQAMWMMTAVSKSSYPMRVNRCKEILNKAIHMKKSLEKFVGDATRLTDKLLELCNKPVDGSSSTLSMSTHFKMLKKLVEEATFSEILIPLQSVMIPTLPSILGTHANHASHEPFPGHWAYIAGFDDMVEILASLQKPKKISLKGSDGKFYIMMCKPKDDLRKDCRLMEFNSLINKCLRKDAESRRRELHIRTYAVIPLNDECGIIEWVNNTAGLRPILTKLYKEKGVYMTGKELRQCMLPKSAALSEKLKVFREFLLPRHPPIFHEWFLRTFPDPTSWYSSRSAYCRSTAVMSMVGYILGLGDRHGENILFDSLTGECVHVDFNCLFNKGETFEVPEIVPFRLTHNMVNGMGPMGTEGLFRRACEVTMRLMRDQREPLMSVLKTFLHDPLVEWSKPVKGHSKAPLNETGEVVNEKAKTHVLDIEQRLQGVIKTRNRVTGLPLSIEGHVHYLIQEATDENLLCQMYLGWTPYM

[28] = biological target: T1, Serine/threonine-protein kinase ATR; assay: Inhibition of ATR signalling in ATM-deficient human LoVo cells assessed as change in expression of ATR at up to 3 uM incubated for 1 hr followed by hydroxyurea addition measured after 4 hrs by Western blot analysis; assay type: cell-based; conditions: time 5.0 hrs
Target sequence in this assay (Q13535 whole entry, looked up): as above

[29] = AUC (0 to infinity) in Sprague-Dawley rat at 10 mg/kg, po measured at 0.083 to 24 hrs by LC-MS/MS method; assay type: ADME, organism-based; design: time lower 0.083 hrs, dose 10 mg/kg, time upper 24 hrs, route po; conditions: in vivo
[30] = Tmax in Sprague-Dawley rat at 5 mg/kg, iv measured at 0.083 to 24 hrs by LC-MS/MS method; assay type: ADME, organism-based; conditions: in vivo, time 0.083-24 hrs
[31] = biological target: T1, Serine/threonine-protein kinase ATR; assay: Inhibition of human recombinant full length ATR using GST-cMyc-p53 as substrate incubated for 40 mins in presence of ATP by HTRF assay
Target sequence in this assay (Q13535 whole entry): as the sequence (Q13535 whole entry, looked up) above

Chain of Serine/threonine-protein kinase B-raf (P15056 whole entry): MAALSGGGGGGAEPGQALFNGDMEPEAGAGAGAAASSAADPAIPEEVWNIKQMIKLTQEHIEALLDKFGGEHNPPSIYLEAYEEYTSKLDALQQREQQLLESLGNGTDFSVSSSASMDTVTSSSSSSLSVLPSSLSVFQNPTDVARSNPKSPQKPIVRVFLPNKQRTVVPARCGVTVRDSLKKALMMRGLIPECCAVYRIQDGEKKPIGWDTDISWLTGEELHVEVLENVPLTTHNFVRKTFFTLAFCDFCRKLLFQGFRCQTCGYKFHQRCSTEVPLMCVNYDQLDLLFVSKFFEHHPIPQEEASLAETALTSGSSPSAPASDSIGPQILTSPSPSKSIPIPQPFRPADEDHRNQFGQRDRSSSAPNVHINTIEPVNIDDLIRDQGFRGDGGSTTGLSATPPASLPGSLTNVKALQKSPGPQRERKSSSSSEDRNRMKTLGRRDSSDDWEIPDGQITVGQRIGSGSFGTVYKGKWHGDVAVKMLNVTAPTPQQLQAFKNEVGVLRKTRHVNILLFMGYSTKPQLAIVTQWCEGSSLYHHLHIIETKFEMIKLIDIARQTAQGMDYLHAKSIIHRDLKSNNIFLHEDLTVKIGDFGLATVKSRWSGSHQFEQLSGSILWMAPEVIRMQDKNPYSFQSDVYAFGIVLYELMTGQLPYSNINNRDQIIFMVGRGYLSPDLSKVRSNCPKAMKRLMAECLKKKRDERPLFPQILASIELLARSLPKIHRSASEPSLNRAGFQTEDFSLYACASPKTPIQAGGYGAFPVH

Compound: C[C@@H]1COCCN1c1nc(-c2cccc3[nH]ccc23)nc2ccc(-c3ccnn3C)cc12
- Activity (LoVo [1]): 28.91%
- Activity (HT-29 [2]): 1.06%
- Activity (LoVo [3]): 20.93%
- Activity (LoVo [4]): 17.38%
- Activity (LoVo [5]): Dde
- Activity (HT-29 [6]): Dde
- Activity (LoVo [7]): 28.73%
- bioavailability [8]: 43.1%
- Cmax [9]: 3400 ng/mL
- IC50 [10]: 1770 nM
- Activity (HT-29 [11]): 1.51%
- viability at 3 µM (HT-29 [12]): 93.1%
- half-life [13]: 1.14 h
- Vd [14]: 2.03 L/kg
- Activity (MCF7): Dde
- inhibition in vivo at 50 mg/kg (LoVo [15]): 50%
- Activity (HT-29 [16]): 2.64%
- Activity (HCT-116): Dde
- Activity (HT-29 [17]): 5.39%
- half-life [18]: 1.37 h
- viability at 1 µM (LoVo [19]): 47.8%
- Activity (LoVo [20]): 24.04%
- clearance [21]: 26.5 mL/min/kg
- Activity (HT-29 [22]): Active
- AUC(0-inf) [23]: 3150 ng·h/mL
- Tmax [24]: 1.67 h
- Activity (LoVo [25]): Dde
- viability at 1 µM (HT-29 [26]): 94.7%
- inhibition [27]: Dde
- inhibition [28]: Active
- AUC(0-inf) [29]: 2720 ng·h/mL
- Tmax [30]: 4.8 min
- IC50 [31]: 13 nM
